Assay results from PMC6412019, “Discovery of NV-5138, the first selective Brain mTORC1 activator” (Scientific Reports, 2019).
“Also recorded” adds a separate entry of the source.

Legend:
Sestrin2 = molecular target: T1, Sestrin2 (Homo sapiens, UniProt P58004); test: Thermal shift assay of purified Sestrin2; type: binding; set-up: Full-length, codon-optimized human Sestrin2 was cloned into a pMAL6H -C5XT bacterial expression vector; His6-MBP (TEV-cleavable) (N, cleaved yes); made in house; host or cells: Escherichia coli LOBSTR (DE3); details: average +/- SD, n = 3, read-out: Average Tm shift; for ΔTm at 1 µM: compound concentration 1 µM; for ΔTm at 10 µM: compound concentration 10 µM; for ΔTm at 100 µM: compound concentration 100 µM
T1 sequence (P58004 1-480): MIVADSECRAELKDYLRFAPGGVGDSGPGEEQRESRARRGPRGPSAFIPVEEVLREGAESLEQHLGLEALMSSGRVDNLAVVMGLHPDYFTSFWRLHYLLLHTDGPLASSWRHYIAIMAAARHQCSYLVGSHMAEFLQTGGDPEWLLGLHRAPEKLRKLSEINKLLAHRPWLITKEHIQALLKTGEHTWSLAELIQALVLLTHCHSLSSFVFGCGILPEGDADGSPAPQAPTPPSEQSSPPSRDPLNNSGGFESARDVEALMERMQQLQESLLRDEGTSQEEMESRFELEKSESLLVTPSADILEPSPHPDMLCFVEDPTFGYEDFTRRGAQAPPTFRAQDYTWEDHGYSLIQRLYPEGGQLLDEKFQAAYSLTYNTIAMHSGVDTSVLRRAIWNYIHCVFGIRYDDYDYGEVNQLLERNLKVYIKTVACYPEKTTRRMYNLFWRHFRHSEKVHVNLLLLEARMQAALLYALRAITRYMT
Description: Accordingly, we synthesized novel binding ligands incorporating these structural features. These compounds were tested for Sestrin2 binding using a thermal shift assay and for their ability to activate mTORC1 in leucine-starved Human Embryonic Kidney (HEK)-293T cells. These studies led to the identification of NV-5138 – a novel small molecule activator of mTORC1 signaling (Fig. 1a).
Full-length, codon-optimized human Sestrin2 was cloned into a pMAL6H -C5XT bacterial expression vector. Protein was purified onto a HisTrap FF crude column (GE Healthcare) followed by anion exchange chromatography then further purified via size-exclusion chromatography. Further details can be found in Supplementary Information.
Full-length, codon-optimized human Sestrin2 was cloned into a pMAL6H -C5XT bacterial expression vector such that Sestrin2 became N-terminally fused with a Tobacco Etch Virus nuclear-inclusion-a endopeptidase (TEV)–cleavable His6-MBP tag. This vector was transformed into Escherichia coli LOBSTR (DE3) cells (Kerafast) ^1. Cells were grown at 37 °C to 0.6 OD, then protein production was induced with 0.2 mM IPTG at 18 °C for 12–14 h. Cells were collected by centrifugation at 6,000g, resuspended in lysis buffer (50 mM Tris-HCl, pH 8.5, 400 mM NaCl, 5 mM MgCl2, 1 mM dithiothreitol (DTT), 0.2% CHAPS, 10% glycerol and 1 tablet of protease inhibitor tablets per 50 ml (Complete Inhibitor tablets from Roche w/o EDTA)), homogenized and sonicated. The lysate was cleared by centrifugation at 15,000g for 45 min. The soluble fraction (~250 ml) was loaded onto a HisTrap FF crude column (GE Healthcare) at 2 ml/min followed by washing with lysis buffer at 4 ml/min. After washing, the protein was eluted in lysis buffer containing 300 mM imidazole at 4 ml/min. Fractions corresponding to the Sestrin2 protein were identified via SDS-PAGE and pooled. The eluted Sestrin2 was then incubated with TEV protease and dialyzed overnight at 4 °C into 50 mM Tris-HCl, pH 8.5, 400 mM NaCl, 5 mM MgCl2, 1 mM dithiothreitol (DTT), 0.1% CHAPS, 10% glycerol. To separate the N-terminal tag from the cleaved Sesrin2, from cleaved sample was then re-applied to the HisTrap FF crude column and flow-through collected. The protein was then subjected to anion exchange chromatography on an 8ml Mono Q column (GE Healthcare) with a linear NaCl gradient and then further purified via size-exclusion chromatography on a Superdex S200 26/60 column (GE Healthcare) equilibrated in running buffer (50 mM Hepes pH 7.4, 200 mM NaCl, 1 mM DTT, 2.5 mM MgCl2, and 5% glycerol).

BCAT1 = molecular target: T2, BCAT1 (Homo sapiens, UniProt P54687); test: BCAT enzymatic assay (substrate test), BCAT1; type: biochemical; details: NADH oxidation at 340 nm; tested up to 1.5 mM
T2 construct: purchased OriGene TP319229
T2 sequence (P54687 1-386): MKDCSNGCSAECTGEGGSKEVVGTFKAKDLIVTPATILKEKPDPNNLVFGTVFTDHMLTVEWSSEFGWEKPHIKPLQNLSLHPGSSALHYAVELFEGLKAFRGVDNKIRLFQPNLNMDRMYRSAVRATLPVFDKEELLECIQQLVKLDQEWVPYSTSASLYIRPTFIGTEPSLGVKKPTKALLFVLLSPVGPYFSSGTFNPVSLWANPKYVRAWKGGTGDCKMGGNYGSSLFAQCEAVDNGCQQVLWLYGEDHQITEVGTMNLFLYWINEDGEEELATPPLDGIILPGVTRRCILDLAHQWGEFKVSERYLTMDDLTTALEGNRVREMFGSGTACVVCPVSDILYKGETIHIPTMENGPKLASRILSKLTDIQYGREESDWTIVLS
Description: BCAT exists in two isoforms, mitochondrial BCAT2 which is ubiquitously expressed, and cytosolic BCAT1, which is predominantly expressed in embryonic tissues and the adult brain. To determine whether NV-5138 is a substrate for BCAT isoforms, we established an in vitro enzymatic assay using purified BCAT1 and BCAT2 and performed the assay in the forward direction as described. […] The disappearance of absorbance at 340 nm due to NADH oxidation is measured continuously over time.
The assay buffer was dispensed into a 96-well plate and brought up to 37 °C for 10 min before adding BCAT1 or BCAT2 (72 ng) in 0.1 M potassium phosphate buffer. Absorbance at 340 nm was then read every minute for 30 min at RT using an Envision plate reader. Source of each reagents used can be found in Supplementary Information.

ΔTm at 1 µM (Sestrin2) [°C]	ΔTm at 10 µM (Sestrin2) [°C]	ΔTm at 100 µM (Sestrin2) [°C]	Structure (SMILES)	transamination by BCAT1 (BCAT1)
0.57 ± 0.22	3.27 ± 0.16	6.17 ± 0.18	CC(C)(C[C@H](N)C(=O)O)C(F)F [NV-5138, (S)-2-amino-5,5-difluoro-4,4-dimethylpentanoic acid]	no decrease in absorption at 340 nm; also recorded: did not observe any transamination
0.61 ± 0.59	3.64 ± 0.41	6.49 ± 0.2	CC(C)C[C@H](N)C(=O)O [Leucine, L-leucine, reference compound]	transaminated by BCAT1 and BCAT2
